# Measured values reported in ChEMBL document CHEMBL1201862, “PubChem BioAssay data set” (2004).
#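 Exposure lasted 48 hours, with cells grown in 96-well plates and compounds tested at five concentrations. Abbreviation: GI50, concentration required for 50% inhibition of growth.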 Activity calls are given as the source filed them. Cut-off read from the data, not from the text of the source: active = GI50 up to about 1.1 µM and inactive = higher.
# Experiments:
# Test in all cases: inhibition of tumour cell growth, NCI panel, 48 h
# A498 = test system: A498
# A549 = test system: A549
# CCRF-CEM = test system: CCRF-CEM
# DMS-273 = test system: DMS-273
# EKVX = test system: EKVX
# HCT-116 = test system: HCT-116
# HL-60 = test system: HL-60
# HOP-62 = test system: HOP-62
# HOP-92 = test system: HOP-92
# HT-29 = test system: HT-29
# IGROV-1 = test system: IGROV-1
# KM12 = test system: KM12
# M14 = test system: M14
# M19-MEL = test system: M19-MEL
# MOLT-4 = test system: MOLT-4
# NCI-H226 = test system: NCI-H226
# NCI-H23 = test system: NCI-H23
# NCI-H460 = test system: NCI-H460
# NCI-H522 = test system: NCI-H522
# OVCAR-5 = test system: OVCAR-5
# OVCAR-8 = test system: OVCAR-8
# RXF 393 = test system: RXF 393
# SF-268 = test system: SF-268
# SF-295 = test system: SF-295
# SK-MEL-28 = test system: SK-MEL-28
# SK-OV-3 = test system: SK-OV-3
# SNB-19 = test system: SNB-19
# SNB-78 = test system: SNB-78
# SR = test system: SR
# TK-10 = test system: TK-10
# U-251 = test system: U-251
# UACC-257 = test system: UACC-257
# UACC-62 = test system: UACC-62
# UO-31 = test system: UO-31
# 786-0 = test system: 786-0
# ACHN = test system: ACHN
# BT-549 = test system: BT-549
# CAKI-1 = test system: CAKI-1
# COLO 205 = test system: COLO 205
# DU-145 = test system: DU-145
# HCC 2998 = test system: HCC 2998
# HCT-15 = test system: HCT-15
# Hs-578T = test system: Hs-578T
# K562 = test system: K562
# LOX IMVI = test system: LOX IMVI
# MCF7 = test system: MCF7
# MDA-MB-231 = test system: MDA-MB-231
# MDA-MB-435 = test system: MDA-MB-435
# MDA-N = test system: MDA-N
# Malme-3M = test system: Malme-3M
# NCI/ADR-RES = test system: NCI/ADR-RES
# OVCAR-3 = test system: OVCAR-3
# OVCAR-4 = test system: OVCAR-4
# PC-3 = test system: PC-3
# RPMI-8226 = test system: RPMI-8226
# SF-539 = test system: SF-539
# SK-MEL-2 = test system: SK-MEL-2
# SK-MEL-5 = test system: SK-MEL-5
# SN12C = test system: SN12C
# SNB-75 = test system: SNB-75
# SW-620 = test system: SW-620
# T47D = test system: T47D
compound,measurement,setting,value
CCSc1c2ccccc2nc2c(OC)ccc(OC)c12,GI50,A498,31 µM (inactive)
same,GI50,A549,70.6 µM (inactive)
same,GI50,CCRF-CEM,36.3 µM (inactive)
same,GI50,DMS-273,21.9 µM (inactive)
same,GI50,EKVX,> 100 µM (inactive)
same,GI50,HCT-116,20.1 µM (inactive)
same,GI50,HL-60,23.3 µM (inactive)
same,GI50,HOP-62,36.5 µM (inactive)
same,GI50,HOP-92,22.3 µM (inactive)
same,GI50,HT-29,25.7 µM (inactive)
same,GI50,IGROV-1,26.7 µM (inactive)
same,GI50,KM12,24.7 µM (inactive)
same,GI50,M14,35.7 µM (inactive)
same,GI50,M19-MEL,18.5 µM (inactive)
same,GI50,MOLT-4,22 µM (inactive)
same,GI50,NCI-H226,25.1 µM (inactive)
same,GI50,NCI-H23,> 10 µM (inactive)
same,GI50,NCI-H460,20.7 µM (inactive)
same,GI50,NCI-H522,41.2 µM (inactive)
same,GI50,OVCAR-5,42.3 µM (inactive)
same,GI50,OVCAR-8,22.1 µM (inactive)
same,GI50,RXF 393,18.6 µM (inactive)
same,GI50,SF-268,22.8 µM (inactive)
same,GI50,SF-295,25.2 µM (inactive)
same,GI50,SK-MEL-28,19.8 µM (inactive)
same,GI50,SK-OV-3,24.7 µM (inactive)
same,GI50,SNB-19,29.1 µM (inactive)
same,GI50,SNB-78,14.5 µM (inactive)
same,GI50,SR,23.9 µM (inactive)
same,GI50,TK-10,33.8 µM (inactive)
same,GI50,U-251,19.3 µM (inactive)
same,GI50,UACC-257,22.4 µM (inactive)
same,GI50,UACC-62,20.6 µM (inactive)
same,GI50,UO-31,25.9 µM (inactive)
Nc1ncnc2c1ncn2[C@@H]1O[C@H](COP(=O)(O)OP(=O)(O)OC[C@H]2O[C@@H](OCCCO)[C@H](O)[C@@H]2O)[C@@H](O)[C@H]1O,GI50,786-0,> 100 µM (inactive)
same,GI50,A498,> 100 µM (inactive)
same,GI50,A549,87.7 µM (inactive)
same,GI50,ACHN,> 100 µM (inactive)
same,GI50,BT-549,> 100 µM (inactive)
same,GI50,CAKI-1,85.9 µM (inactive)
same,GI50,CCRF-CEM,> 100 µM (inactive)
same,GI50,COLO 205,> 100 µM (inactive)
same,GI50,DU-145,> 100 µM (inactive)
same,GI50,EKVX,> 100 µM (inactive)
same,GI50,HCC 2998,> 100 µM (inactive)
same,GI50,HCT-116,61.1 µM (inactive)
same,GI50,HCT-15,60 µM
same,GI50,HL-60,> 100 µM (inactive)
same,GI50,HOP-62,> 100 µM (inactive)
same,GI50,HOP-92,> 100 µM (inactive)
same,GI50,HT-29,69.8 µM (inactive)
same,GI50,Hs-578T,> 100 µM (inactive)
same,GI50,IGROV-1,> 100 µM (inactive)
same,GI50,K562,> 100 µM (inactive)
same,GI50,KM12,63.5 µM (inactive)
same,GI50,LOX IMVI,56.8 µM (inactive)
same,GI50,M14,> 100 µM (inactive)
same,GI50,MCF7,> 100 µM (inactive)
same,GI50,MDA-MB-231,> 100 µM (inactive)
same,GI50,MDA-MB-435,> 100 µM (inactive)
same,GI50,MDA-N,78.9 µM (inactive)
same,GI50,MOLT-4,> 100 µM (inactive)
same,GI50,Malme-3M,> 100 µM (inactive)
same,GI50,NCI-H226,> 100 µM (inactive)
same,GI50,NCI-H23,> 100 µM (inactive)
same,GI50,NCI-H460,34.6 µM (inactive)
same,GI50,NCI-H522,> 100 µM (inactive)
same,GI50,NCI/ADR-RES,> 100 µM (inactive)
same,GI50,OVCAR-3,> 100 µM (inactive)
same,GI50,OVCAR-4,> 100 µM (inactive)
same,GI50,OVCAR-5,> 100 µM (inactive)
same,GI50,OVCAR-8,> 100 µM (inactive)
same,GI50,PC-3,> 100 µM (inactive)
same,GI50,RPMI-8226,> 100 µM (inactive)
same,GI50,RXF 393,> 100 µM (inactive)
same,GI50,SF-268,> 100 µM (inactive)
same,GI50,SF-295,> 100 µM (inactive)
same,GI50,SF-539,> 100 µM (inactive)
same,GI50,SK-MEL-28,> 100 µM (inactive)
same,GI50,SK-MEL-2,> 100 µM (inactive)
same,GI50,SK-MEL-5,> 100 µM (inactive)
same,GI50,SK-OV-3,> 100 µM (inactive)
same,GI50,SN12C,> 100 µM (inactive)
same,GI50,SNB-19,76.6 µM (inactive)
same,GI50,SNB-75,> 100 µM (inactive)
same,GI50,SR,44.8 µM (inactive)
same,GI50,SW-620,> 100 µM (inactive)
same,GI50,T47D,> 100 µM (inactive)
same,GI50,TK-10,> 100 µM (inactive)
same,GI50,U-251,> 100 µM (inactive)
same,GI50,UACC-257,> 100 µM (inactive)
same,GI50,UACC-62,> 100 µM (inactive)
same,GI50,UO-31,> 100 µM (inactive)
CCCCCCCCCCCCCCC[C@@H](O)C[N+](C)(C)CCO,GI50,786-0,0.927 µM (active)
same,GI50,A498,19.1 µM (inactive)
same,GI50,A549,3.49 µM (inactive)
same,GI50,ACHN,3.95 µM (inactive)
same,GI50,BT-549,0.759 µM (active)
same,GI50,CAKI-1,0.977 µM (active)
same,GI50,CCRF-CEM,1.25 µM (inactive)
same,GI50,COLO 205,2.57 µM (inactive)
same,GI50,DU-145,7.66 µM (inactive)
same,GI50,EKVX,8.77 µM (inactive)
same,GI50,HCC 2998,1.8 µM (inactive)
same,GI50,HCT-116,3.99 µM (inactive)
same,GI50,HCT-15,2.6 µM
same,GI50,HL-60,0.149 µM (active)
same,GI50,HOP-62,2.88 µM (inactive)
same,GI50,HOP-92,1.27 µM (inactive)
same,GI50,HT-29,1.2 µM (inactive)
same,GI50,Hs-578T,1.38 µM (inactive)
same,GI50,IGROV-1,0.434 µM (active)
same,GI50,K562,2.41 µM (inactive)
same,GI50,KM12,0.841 µM (active)
same,GI50,LOX IMVI,2.07 µM (inactive)
same,GI50,M14,3.62 µM (inactive)
same,GI50,MCF7,5.85 µM (inactive)
same,GI50,MDA-MB-231,1.8 µM (inactive)
same,GI50,MDA-MB-435,4.84 µM (inactive)
same,GI50,MDA-N,5.98 µM (inactive)
same,GI50,MOLT-4,2.17 µM (inactive)
same,GI50,Malme-3M,2.81 µM (inactive)
same,GI50,NCI-H226,2.79 µM (inactive)
same,GI50,NCI-H23,2.06 µM (inactive)
same,GI50,NCI-H460,1.52 µM (inactive)
same,GI50,NCI-H522,1.42 µM (inactive)
same,GI50,NCI/ADR-RES,13.6 µM (inactive)
same,GI50,OVCAR-3,4.42 µM (inactive)
same,GI50,OVCAR-4,4.2 µM (inactive)
same,GI50,OVCAR-5,2.24 µM (inactive)
same,GI50,OVCAR-8,5.13 µM (inactive)
same,GI50,PC-3,1.06 µM (active)
same,GI50,RPMI-8226,2.21 µM (inactive)
same,GI50,RXF 393,1.11 µM (active)
same,GI50,SF-268,1.72 µM (inactive)
same,GI50,SF-295,2.37 µM (inactive)
same,GI50,SF-539,2.39 µM (inactive)
same,GI50,SK-MEL-28,19.3 µM (inactive)
same,GI50,SK-MEL-2,9.55 µM (inactive)
same,GI50,SK-MEL-5,2.72 µM (inactive)
same,GI50,SK-OV-3,7.76 µM (inactive)
same,GI50,SN12C,5.61 µM (inactive)
same,GI50,SNB-19,1.63 µM (inactive)
same,GI50,SNB-75,0.597 µM (active)
same,GI50,SR,1.72 µM (inactive)
same,GI50,SW-620,4.14 µM (inactive)
same,GI50,T47D,6.82 µM (inactive)
same,GI50,TK-10,1.31 µM (inactive)
same,GI50,U-251,1.73 µM (inactive)
same,GI50,UACC-257,10.2 µM (inactive)
same,GI50,UACC-62,3.92 µM (inactive)
same,GI50,UO-31,7.01 µM (inactive)
